Tests used:
Asaia = Asaia quantification by qPCR in mosquito midguts; type: in vivo, Anopheles coluzzii; conditions: blood meals with 0.1, 1 or 5 μg/ml azithromycin, three meals; vs control
[1] = tested on: Anopheles coluzzii mosquitoes; assay: Mosquito survival after azithromycin blood meals; type: in vivo; conditions: blood meals with 0.1, 1 or 5 μg/ml azithromycin; vs negative control
E. coli DH5a = assay: Antibiotic coating and penetration of corn kernels (E. coli growth on LB plates); type: cell-based, Escherichia coli; conditions: kernels soaked 1.5 hours in 2.5 or 0.25 mg/ml ciprofloxacin
[2] = tested on: Sitophilus primary endosymbiont (SPE, Candidatus Sodalis pierantonius); assay: SPE levels in weevils by qPCR; type: in vivo, Sitophilus zeamais; conditions: for SPE amount, fold higher in water-treated than in treated weevils: F0 adults, 18 days
Description: (§1) Sitophilus maize weevils (Sitophilus zeamais) were reared on organic corn at 27.5° C. and 70% relative humidity. Prior to being used for weevil rearing, corn was frozen for 7 days and then tempered to 10% humidity with sterile water. […] Ciprofloxacin (Sigma) stock solutions were made at 25 mg/ml in 0.1 N HCl, sterilized by passing through a 0.22 μm syringe filter, and stored at −20° C. For treatments, the appropriate amount of stock solution was diluted in sterile water.
(§2) Weevil survival was monitored daily for 18 days, after which DNA was extracted from the remaining weevils in each group. Briefly, the weevil body was surface sterilized by dipping the weevil into a 6% bleach solution for approximately 5 seconds. Weevils were then rinsed in sterile water and DNA was extracted from each individual […] using a DNA extraction kit (Qiagen, DNeasy kit) according to manufacturer's instructions. […]; SEQ ID NO: 245). […]; SEQ ID NO: 247) (Login et al., 2011). qPCR was performed using a qPCR amplification ramp of 1.6 degrees C./s and the following conditions: 1) 95° C. for 10 minutes, 2) 95° C. for 15 seconds, 3) 57° C. for 30 seconds, 4) repeat steps 2-3 40×, 5) 95° C. for 15 seconds, 6) 55° C. for 1 minute, 7) ramp change to 0.15 degrees C./s, 8) 95° C. for 1 second. qPCR data was analyzed using analytic (Thermo Fisher Scientific, QuantStudio Design and Analysis) software.

[3] = tested on: Sitophilus zeamais weevils; assay: Weevil survival; type: in vivo; conditions: adult mating pairs; 250 μg/ml or 2.5 mg/ml ciprofloxacin; 18 days
Description: as §1, §2

[4] = tested on: Sitophilus zeamais weevils; assay: Weevil reproduction (emergence of F1 offspring); conditions: 2.5 mg/ml ciprofloxacin; till day 43
[5] = tested on: Acyrthosiphon pisum aphids; assay: Aphid survival monitored daily; type: in vivo
Buchnera = assay: Buchnera/aphid DNA copy number by qPCR; type: in vivo, Acyrthosiphon pisum
[6] = tested on: Acyrthosiphon pisum aphids; assay: Aphid fecundity (offspring counts); type: in vivo; conditions: eNASCO, control approximately 7
Description: (§3) In addition, the developmental stage (1st, 2nd, 3rd, 4th, 5th instar) was determined daily throughout the experiment. Once an aphid reached the 4th instar stage, they were given their own artificial feeding system in a deep petri dish so that fecundity could be monitored once they reached adulthood.
For adult aphids, new nymphs were counted daily and then discarded. At the end of the experiments, fecundity was determined as the mean number of offspring produced daily once the aphid reached adulthood. Pictures of aphids were taken throughout the experiment to evaluate size differences between treatment groups.
as §3, with “5th, and 5R (5th that has reproduced)” for “5th”
For adult aphids, new nymphs were counted daily and then discarded. At the end of the experiments, fecundity was measured in two ways: 1) the mean day at which the first offspring for the treatment group was determined and 2) the mean number of offspring produced daily once the aphid reached adulthood. […]
In addition, the developmental stage (1st, 2nd, 3rd, 4th, 5th instar) was determined daily throughout the experiment. […]

[7] = LSR-1, through plants, artificial diet without essential amino acids + 100 μg/ml rifampicin

CC[C@H]1OC(=O)[C@H](C)[C@@H](O[C@H]2C[C@@](C)(OC)[C@@H](O)[C@H](C)O2)[C@H](C)[C@@H](O[C@@H]2O[C@H](C)C[C@H](N(C)C)[C@H]2O)[C@](C)(O)C[C@@H](C)CN(C)[C@H](C)[C@@H](O)[C@]1(C)O [azithromycin]
Asaia specific genes (16S rDNA relative to S7, qPCR) (Asaia): reduction of Asaia specific genes | survival rate of mosquitoes [1]: decreased compared to the control

O=C(O)c1cn(C2CC2)c2cc(N3CCNCC3)c(F)cc2c1=O [ciprofloxacin]
bacterial growth on plate with entire soaked corn kernel (E. coli DH5a): no bacteria grew | SPE amount, fold higher in water-treated than in treated weevils ([2]; 250 ug/ml ciprofloxacin): approximately 4 fold | SPE amount, fold higher in water-treated than in treated weevils ([2]; 2.5 mg/ml ciprofloxacin): ~8 fold | SPE levels, fold higher in water-treated than in treated F1 weevils ([2]; F1 weevils dissected from kernels, 2.5 mg/ml ciprofloxacin): approximately 4 fold | weevil survival [3]: all weevils remained alive | F1 offspring emerged [4]: much less offspring

Cc1cc2c(C(C)C)c(O)c(O)c(C=O)c2c(O)c1-c1c(C)cc2c(C(C)C)c(O)c(O)c(C=O)c2c1O [gossypol, gossypol acetic acid]
time after which aphids began dying ([5]; through plants, 0.5% gossypol): 2 days | Buchnera/aphid DNA copies, fold less than control (Buchnera; through plants, 0.25 and 0.5% gossypol, 5 or 13 days): ~4 fold

CC(=O)CCC(=O)O [levulinic acid]
survival of aphids ([5]; eNASCO, 0.3% levulinic acid, 11-day experiment): survival was significantly less | Buchnera/aphid DNA copies, fold less than control (Buchnera; eNASCO, 0.03 or 0.3% levulinic acid in water, 7 days): ~6 fold

CC(C)(CO)[C@@H](O)C(=O)NCCCO [pantothenol]
survival rate of aphids ([5]; eNASCO, leaf coating, 10 uM pantothenol, p=0.0019): lower survival rates than aphids placed on coated leaves with the control solution | survival rate of aphids ([5]; eNASCO, through plants, 10 or 100 uM pantothenol): negatively affected aphid fitness | mean number of offspring per day ([6]; 10 uM pantothenol): approximately 4 offspring/day | mean number of offspring per day ([6]; 100 uM pantothenol): ~5 offspring/day | Buchnera/aphid DNA copy number (Buchnera; eNASCO, 10 or 100 uM pantothenol, 8 days): does not affect Buchnera/aphid DNA copy number directly

CO[C@H]1/C=C/O[C@@]2(C)Oc3c(C)c(O)c4c(O)c(c(/C=N/N5CCN(C)CC5)c(O)c4c3C2=O)NC(=O)/C(C)=C\C=C\[C@H](C)[C@H](O)[C@@H](C)[C@@H](O)[C@@H](C)[C@H](OC(C)=O)[C@@H]1C [rifampicin]
time after which aphids began dying [5, 7]: 1 days | time by which all aphids succumbed to treatment [5, 7]: ≤ 9 days | Buchnera/aphid DNA copies, fold less than control (Buchnera; LSR-1, through plants, 100 μg/ml rifampicin, 7 days): ~4 fold

O=C/C=C/c1ccccc1 [trans-cinnemaldehyde]
survival rates of aphids ([5]; LSR-1, 0.05%, 0.5%, and 5% trans-cinnemaldehyde, vs water): significantly lower | Buchnera/aphid DNA copies, fold less than control (Buchnera; LSR-1, 0.5 and 5% trans-cinnemaldehyde, 3 days): ~870 fold
